These results are taken from US7615542B2, “Dioxolane thymine and combinations for use against 3TC/AZT resistant strains of HIV” (priority 2002, dated 2009).

Where only a bound is given, the exact number is not on record here.

The test system of one experiment is HIV-1 isolate 488-0. The experiment can be described thus: Anti-HIV efficacy in PBMC, isolate 488-0. The conditions noted are these: for IC50: Human immunodeficiency virus 1, PBMC, isolate 488-0 (pre-treatment), read-out: Drug (IC50). Type of experiment: cell-based. As for the experimental part: (§1) The following Tables 2 and 3, set forth below, describe the HIV resistant strains genotypically (Table 2) and phenotypically (Table 3) which were used in the experiments to test activity.
(§2) Each of the three test compounds were tested for efficacy against the various strains of HIV-1. Anti-HIV efficacy was evaluated in PBMC, reverse transcriptase activity was tested in a microtiter plate-based reverse transciptase assay (Buckeit, et al., AIDS Research and Human Retroviruses, 7:295-302, 1991), MTS staining was used for determining cell viability. […] Table 5 presents a resistance phenotype comparison for compounds of the present invention versus the compounds 3TC and AZT.
(§3) The compounds were also evaluated in a parallel assay for cytotoxicity in uninfected PBM cells.

The subject of another experiment is HIV-1 isolate LAI M184V. The experiment can be described thus: Anti-HIV efficacy in PBMC, isolate LAI M184V. Type of experiment: cell-based. The conditions noted are these: for Phenotype for LAI M184V: resistance phenotype comparison, Table 5. As to the method: as §1
(§4) Each of the three test compounds were tested for efficacy against the various strains of HIV-1. Anti-HIV efficacy was evaluated in PBMC, reverse transcriptase activity was tested in a microtiter plate-based reverse transciptase assay (Buckeit, et al., AIDS Research and Human Retroviruses, 7:295-302, 1991), MTS staining was used for determining cell viability.
as §3

The test system of another experiment is HIV-1 isolate 5705-72. The experiment can be described thus: Anti-HIV efficacy in PBMC, isolate 5705-72. Type of experiment: cell-based. The settings on record: for IC50: Human immunodeficiency virus 1, PBMC, isolate 5705-72 (post-treatment), read-out: Drug (IC50). As for the experimental part: as §1, §4, §3
For another experiment, the system named is HIV-1 isolate 488-101. Put plainly: microbe, parasite or virus in culture. Type of experiment: cell-based. The conditions noted are these: for IC50: Human immunodeficiency virus 1, PBMC, isolate 488-101 (post-treatment), read-out: Drug (IC50); for Phenotype for 488-101: resistance phenotype comparison, Table 5. As for the experimental part:
as §1, §4, §3

The subject of the next experiment is HIV-1 isolate LAI. The experiment can be described thus: Anti-HIV efficacy in PBMC, isolate LAI. Type of experiment: cell-based. The settings on record: for IC50: Human immunodeficiency virus 1, PBMC, read-out: Drug (IC50). As to the method: as §1, §2, §3
The next experiment relates to HIV-1 isolate G910-6. Put plainly: Anti-HIV efficacy in PBMC, isolate G910-6. Type of experiment: cell-based. The settings on record: for IC50: Human immunodeficiency virus 1, PBMC, isolate G910-6 (post-treatment), read-out: Drug (IC50); for Phenotype for G910-6: resistance phenotype comparison, Table 5. As to the method: as §1, §4, §3
For another experiment, the system named is HIV-1 isolate 5705-0. Put plainly: Anti-HIV efficacy in PBMC, isolate 5705-0. Type of experiment: cell-based. The conditions noted are these: for IC50: Human immunodeficiency virus 1, PBMC, isolate 5705-0 (pre-treatment), read-out: Drug (IC50). As to the method:
as §1, §2, §3

The next experiment deals with HIV-1 isolate H112-2. Put plainly: Anti-HIV efficacy in PBMC, isolate H112-2. Type of experiment: cell-based. The settings on record: for IC50: Human immunodeficiency virus 1, PBMC, isolate H112-2 (pre-treatment), read-out: Drug (IC50). As for the experimental part:
as §1, §2, §3

The subject of experiment [1] is panel of HIV-1 3TC/AZT drug sensitive/resistant matched pair virus isolates. The experiment can be described thus: Standardized PBMC cell-based anti-HIV assay, matched pair panel. The settings on record: AZT and/or 3TC resistant isolates. As for the experimental part: as §4, §3
Experiment [2] has as its system mutations 65R, 74V, 184V, and 115F in the RT gene. The conditions noted are these: mutants harboring 2 or 3 of these mutations; cited from earlier work.

Consider `Nc1ccn([C@@H]2CS[C@H](CO)O2)c(=O)n1` [3TC, Lamivudine], for which the IC50 with HIV-1 isolate 488-0 was 30 to 47 nM; with HIV-1 isolate LAI M184V (Human immunodeficiency virus 1, PBMC, isolate LAI-M184V, read-out: Drug (IC50)), above 50000 nM; in the experiment on HIV-1 isolate 5705-72, above 50000 nM; with HIV-1 isolate 488-101 it was 40600 nM; in the experiment on HIV-1 isolate LAI, 10 nM; with HIV-1 isolate G910-6, 320 nM. Also, the values for the IC50 in the experiment on HIV-1 isolate 5705-0 and in the experiment with HIV-1 isolate H112-2 were 4 to 9 nM and 170 nM, respectively. Also, the “Phenotype for 488-101” value in the experiment with HIV-1 isolate 488-101 was “Resistant (>5 fold resistance, Resistant)”. Also, the “Phenotype for G910-6” value in the experiment on HIV-1 isolate G910-6 is given as “Sensitive (<5 fold resistance, Sensitive)”.

In the case of `Cc1cn([C@H]2C[C@H](N=[N+]=[N-])[C@@H](CO)O2)c(=O)[nH]c1=O` [AZT, 3′-Azido-3′-deoxythymidine], the IC50 is 0.3 to 0.6 nM in the experiment with HIV-1 isolate 488-0; 30 nM with HIV-1 isolate 5705-72; 80 nM in the experiment with HIV-1 isolate 488-101; 20 nM in the experiment on HIV-1 isolate LAI; 620 nM in the experiment with HIV-1 isolate G910-6; 3 to 8 nM in the experiment with HIV-1 isolate 5705-0. Besides, the 50% inhibitory concentration (IC50) with HIV-1 isolate H112-2 amounted to 10 nM. Further, the Phenotype entry in the experiment with HIV-1 isolate 488-0 (isolate 488-0, Table 3) is “Sensitive”; in the experiment on HIV-1 isolate LAI M184V (isolate LAI-M184V, Table 3), “Sensitive”; with HIV-1 isolate 488-101 (isolate 488-101, Table 3), “Resistant”; with HIV-1 isolate LAI (Table 3) it was “Sensitive”; in the experiment with HIV-1 isolate G910-6 (isolate G910-6, Table 3), “Resistant”; in the experiment with HIV-1 isolate 5705-0 (isolate 5705-0, Table 3) it was “Sensitive”. In addition, the Phenotype entry in the experiment on HIV-1 isolate H112-2 (isolate H112-2, Table 3) is “Sensitive”. The “Phenotype for LAI M184V” value with HIV-1 isolate LAI M184V is listed as “Sensitive (<5 fold resistance, Sensitive)”. The “Phenotype for G910-6” value with HIV-1 isolate G910-6 is reported as “Resistant (>5 fold resistance, Resistant)”.

For the compound `Nc1nc(N)c2ncn(C3COC(CO)O3)c2n1` [DAPD, beta-D-9-(5-hydroxymethyl-dioxolanyl-2-yl)-2,4-diamino-purine], the “Phenotype for LAI M184V” value in the experiment with HIV-1 isolate LAI M184V is “Sensitive (<5 fold resistance, Sensitive)”. The Resistance phenotype entry in the experiment with HIV-1 isolate 5705-72 (resistance phenotype comparison, Table 5) was “Resistant (>5 fold resistance, Resistant)”. The “Phenotype for 488-101” value with HIV-1 isolate 488-101 was “Sensitive (<5 fold resistance, Sensitive)”. Further, the “Phenotype for G910-6” value in the experiment with HIV-1 isolate G910-6 is on record as “Sensitive (<5 fold resistance, Sensitive)”. Also, in experiment [1], the “Cross-resistance / resistance profile” value is on record as “resistance profile similar to AZT”.

`Nc1nc2c(ncn2[C@H]2CO[C@@H](CO)O2)c(=O)[nH]1` [DXG, beta-D-9-(5-hydroxymethyl-dioxolanyl-2-yl)guanine]: the “Phenotype for LAI M184V” value in the experiment with HIV-1 isolate LAI M184V is on record as “Resistant (>5 fold resistance, Resistant)”. The “Phenotype for 488-101” value in the experiment with HIV-1 isolate 488-101 is on record as “Sensitive (<5 fold resistance, Sensitive)”. Besides, the “Phenotype for G910-6” value in the experiment with HIV-1 isolate G910-6 is on record as “Sensitive (<5 fold resistance, Sensitive)”. In [1], the “Cross-resistance / resistance profile” value is on record as “resistance profile similar to that of 3TC”.

Turning to `Nc1nc(NC2CC2)c2ncn([C@H]3C=C[C@@H](CO)C3)c2n1` [abacavir, Abacavir], the “resistance to the drug” value in experiment [2] is given as “approximately 10 fold”.

Broadly, the IC50 is the concentration that inhibits the measured activity by half.
